# Test results taken from patent US9938261B2, “Heterocyclic compounds and methods of use thereof” (AMBIT BIOSCIENCES CORPORATION, priority 2011, dated 2018).
# pIC50, pKd: −log10 of the molar value.
# Assays:
# [1] = target: T1, PDGFRβ (Homo sapiens, UniProt P09619); assay: Competition binding assay, PDGFRβ Kd; details: competition binding
# T1 construct: made in house
# In short: (§1)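 Kinases as T7-phage fusions or HEK-293-expressed DNA-tagged constructs competed against immobilized biotinylated ligand on streptavidin beads, 1 h at room temperature in binding buffer. Bound kinase eluted and quantified by qPCR; Kd from eleven-point threefold dilution series.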
# [2] = target: T2, CSF1R (Homo sapiens, UniProt P07333); assay: Competition binding assay, CSF1R Kd; set-up: made in house; details: competition binding
# T2 sequence (P07333 20-972): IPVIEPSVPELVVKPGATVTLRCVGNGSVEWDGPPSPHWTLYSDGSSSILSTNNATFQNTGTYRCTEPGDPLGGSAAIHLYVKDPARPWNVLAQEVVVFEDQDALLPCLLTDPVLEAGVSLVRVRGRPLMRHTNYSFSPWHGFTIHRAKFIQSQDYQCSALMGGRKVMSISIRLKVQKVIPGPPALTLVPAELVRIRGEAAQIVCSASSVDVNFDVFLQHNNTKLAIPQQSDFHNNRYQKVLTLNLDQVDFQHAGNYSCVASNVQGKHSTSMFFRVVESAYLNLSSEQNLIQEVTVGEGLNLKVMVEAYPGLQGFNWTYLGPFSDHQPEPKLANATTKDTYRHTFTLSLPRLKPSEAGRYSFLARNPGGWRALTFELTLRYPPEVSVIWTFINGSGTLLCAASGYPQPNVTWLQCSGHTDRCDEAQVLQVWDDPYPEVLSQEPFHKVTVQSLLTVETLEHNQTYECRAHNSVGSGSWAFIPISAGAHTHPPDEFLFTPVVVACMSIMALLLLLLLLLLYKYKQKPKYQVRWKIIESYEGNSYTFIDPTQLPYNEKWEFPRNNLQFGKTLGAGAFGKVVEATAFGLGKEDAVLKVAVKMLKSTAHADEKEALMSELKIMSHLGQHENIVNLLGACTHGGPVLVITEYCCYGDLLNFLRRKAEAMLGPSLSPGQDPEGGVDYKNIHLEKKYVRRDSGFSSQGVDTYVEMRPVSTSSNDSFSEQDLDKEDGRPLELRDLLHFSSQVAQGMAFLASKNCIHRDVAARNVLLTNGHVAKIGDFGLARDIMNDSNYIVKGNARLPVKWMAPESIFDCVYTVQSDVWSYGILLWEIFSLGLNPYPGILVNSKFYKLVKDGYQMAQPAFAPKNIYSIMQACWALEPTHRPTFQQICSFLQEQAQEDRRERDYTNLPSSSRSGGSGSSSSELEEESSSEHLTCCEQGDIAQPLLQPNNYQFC
# In short: as §1
# [3] = target: T2, CSF1R; assay: HEK293 CSF1R phosphorylation MSD assay; type: cell-based; set-up: expressed in transfected cells; host or cells: HEK293; details: HEK293 cells, M-CSF stimulated CSF1R phosphorylation, MSD; read-out: HEK293 pCSF1R M-CSF MSD:IC50
# In short: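 HEK293 cells expressing CSF1R-FKBP were pretreated 2 h at 37° C with 9 half-log concentrations of compound (0.5% DMSO final), then stimulated 5 min with 50 ng/mL human M-CSF. Lysates captured on biotin-FK506 plates; phosphotyrosine detected by MSD electrochemiluminescence. IC50 versus DMSO, averaged from duplicate plates.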
# T1 sequence (P09619 33-1106): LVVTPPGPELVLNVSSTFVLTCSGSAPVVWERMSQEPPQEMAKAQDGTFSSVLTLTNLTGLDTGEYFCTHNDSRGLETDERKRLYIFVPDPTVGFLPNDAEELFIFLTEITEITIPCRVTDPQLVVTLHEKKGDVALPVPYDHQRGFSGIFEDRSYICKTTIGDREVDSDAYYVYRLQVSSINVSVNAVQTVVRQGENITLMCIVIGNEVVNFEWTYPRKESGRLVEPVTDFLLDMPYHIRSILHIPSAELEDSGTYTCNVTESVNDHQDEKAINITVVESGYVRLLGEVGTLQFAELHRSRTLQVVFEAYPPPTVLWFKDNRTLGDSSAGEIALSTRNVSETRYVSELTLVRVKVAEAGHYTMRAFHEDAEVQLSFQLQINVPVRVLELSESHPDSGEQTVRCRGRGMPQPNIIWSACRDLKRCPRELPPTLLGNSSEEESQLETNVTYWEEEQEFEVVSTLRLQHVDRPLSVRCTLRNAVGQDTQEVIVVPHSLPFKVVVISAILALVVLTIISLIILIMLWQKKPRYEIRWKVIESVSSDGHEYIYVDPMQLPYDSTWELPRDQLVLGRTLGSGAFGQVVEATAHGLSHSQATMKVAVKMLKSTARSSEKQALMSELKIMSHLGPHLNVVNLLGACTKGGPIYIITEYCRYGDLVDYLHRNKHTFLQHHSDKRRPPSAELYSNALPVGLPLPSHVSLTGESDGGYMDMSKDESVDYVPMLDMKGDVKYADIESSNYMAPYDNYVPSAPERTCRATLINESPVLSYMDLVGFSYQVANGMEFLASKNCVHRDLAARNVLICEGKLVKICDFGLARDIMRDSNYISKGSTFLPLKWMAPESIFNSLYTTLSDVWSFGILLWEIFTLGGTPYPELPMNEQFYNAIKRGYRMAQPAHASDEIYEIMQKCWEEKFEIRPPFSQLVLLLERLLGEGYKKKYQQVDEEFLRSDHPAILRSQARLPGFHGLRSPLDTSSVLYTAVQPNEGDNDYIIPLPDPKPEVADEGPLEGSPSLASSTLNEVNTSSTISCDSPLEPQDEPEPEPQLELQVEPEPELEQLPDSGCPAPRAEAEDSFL
pKd [1],pKd [2],pIC50 [3],SMILES
5.70 to 6.30,7.30 to 7.70,6.30 to 6.70,"CS(=O)(=O)c1ccc2c(c1)ncn2Cc1ccc2nc(N[C@@H]3CCCC[C@H]3O)sc2c1 [Example 112, (1R,2R)-2-((6-((5-(methylsulfonyl)-1H-benzo[d]imidazol-1-yl)methyl)benzo[d]thiazol-2-yl)amino)cyclohexanol]"
5.70 to 6.30,7.70 to 8.30,< 6.30,"COc1ccc2ncc(Cc3ccc4nc(N[C@@H]5CCCC[C@H]5O)sc4c3)n2c1 [Example 165, (1R,2R)-2-((6-((6-methoxyimidazo[1,2-a]pyridin-3-yl)methyl)benzo[d]thiazol-2-yl)amino)cyclohexanol]"
≥ 7.30,≥ 8.30,≥ 7.30,"O[C@@H]1CCCC[C@H]1Nc1nc2ccc(Cc3cnc4cccnn34)cc2s1 [Example 131, (1R,2R)-2-((6-(imidazo[1,2-b]pyridazin-3-ylmethyl)benzo[d]thiazol-2-yl)amino)cyclohexanol]"
≥ 7.30,7.70 to 8.30,≥ 7.30,"O[C@@H]1CCCC[C@H]1Nc1nc2ccc(Cn3cnc4cc(OCCN5CCOCC5)ccc43)cc2s1 [Example 171, (1R,2R)-2-((6-((5-(2-morpholinoethoxy)-1H-benzo[d]imidazol-1-yl)methyl)benzo[d]thiazol-2-yl)amino)cyclohexanol]"
≥ 7.30,7.70 to 8.30,6.70 to 7.30,"COc1nc2c(cc1Br)ncn2Cc1ccc2nc(N[C@@H]3CCCC[C@H]3O)sc2c1 [Example 123, (1R,2R)-2-((6-((6-bromo-5-methoxy-3H-imidazo[4,5-b]pyridin-3-yl)methyl)benzo[d]thiazol-2-yl)amino)cyclohexanol]"
6.30 to 7.30,≥ 8.30,6.70 to 7.30,"O[C@H]1CCCC[C@H]1Nc1nc2ccc(Cn3cnc4cc(F)cnc43)cc2s1 [Example 162, (1S,2R)-2-((6-((6-fluoro-3H-imidazo[4,5-b]pyridin-3-yl)methyl)benzo[d]thiazol-2-yl)amino)cyclohexanol]"
≥ 7.30,7.70 to 8.30,≥ 7.30,"COc1ccc2c(c1)ncn2Cc1ccc2nc(N[C@@H]3CCCC[C@H]3O)oc2c1 [Example 151, (1R,2R)-2-((6-((5-methoxy-1H-benzo[d]imidazol-1-yl)methyl)benzo[d]oxazol-2-yl)amino)cyclohexanol]"
6.30 to 7.30,7.70 to 8.30,6.70 to 7.30,"O=C(c1ccn2c(Cc3ccc4nc(N[C@@H]5CCCC[C@H]5O)sc4c3)cnc2c1)N1CCCC1 [Example 223, (3-((2-(((1R,2R)-2-hydroxycyclohexyl)amino)benzo[d]thiazol-6-yl)methyl)imidazo[1,2-a]pyridin-7-yl)(pyrrolidin-1-yl)methanone]"
≥ 7.30,≥ 8.30,6.70 to 7.30,"O[C@@H]1CCCC[C@H]1Nc1nc2ccc(Cn3cnc4cc(F)cnc43)cc2o1 [Example 132, (1R,2R)-2-((6-((6-fluoro-3H-imidazo[4,5-b]pyridin-3-yl)methyl)benzo[d]oxazol-2-yl)amino)cyclohexanol]"
6.30 to 7.30,7.70 to 8.30,6.70 to 7.30,"Cn1nnc(-c2ccc3c(c2)ncn3Cc2ccc3nc(N[C@@H]4CCC[C@@H](O)[C@H]4O)sc3c2)n1 [Example 236, (1R,2S,3R)-3-((6-((5-(2-methyl-2H-tetrazol-5-yl)-1H-benzo[d]imidazol-1-yl)methyl)benzo[d]thiazol-2-yl)amino)cyclohexane-1,2-diol]"
6.30 to 7.30,7.70 to 8.30,6.30 to 6.70,"Fc1cnc2c(c1)ncn2Cc1ccc2nc(N[C@H]3C=CCCC3)sc2c1 [Example 176, (R)—N-(cyclohex-2-en-1-yl)-6-((6-fluoro-3H-imidazo[4,5-b]pyridin-3-yl)methyl)benzo[d]thiazol-2-amine]"
≥ 7.30,≥ 8.30,≥ 7.30,"C=Cc1ccc2c(c1)ncn2Cc1ccc2nc(N[C@@H]3CCC[C@@H](O)[C@H]3O)sc2c1 [Example 232, (1R,2S,3R)-3-((6-((5-vinyl-1H-benzo[d]imidazol-1-yl)methyl)benzo[d]thiazol-2-yl)amino)cyclohexane-1,2-diol]"
